Assay results as given in PMC5791972 (PLoS ONE, 2018).
Read-outs that look alike come from different tables or passages of the source.

Assays:
[1] = molecular target: T1, α1A (h) (Homo sapiens, UniProt P35348); assay type: binding; conditions: 1 h, 1.0E-06 M
T1 construct: expressed in transfected cells; host or cells: CHO cells
T1 sequence (P35348 1-466): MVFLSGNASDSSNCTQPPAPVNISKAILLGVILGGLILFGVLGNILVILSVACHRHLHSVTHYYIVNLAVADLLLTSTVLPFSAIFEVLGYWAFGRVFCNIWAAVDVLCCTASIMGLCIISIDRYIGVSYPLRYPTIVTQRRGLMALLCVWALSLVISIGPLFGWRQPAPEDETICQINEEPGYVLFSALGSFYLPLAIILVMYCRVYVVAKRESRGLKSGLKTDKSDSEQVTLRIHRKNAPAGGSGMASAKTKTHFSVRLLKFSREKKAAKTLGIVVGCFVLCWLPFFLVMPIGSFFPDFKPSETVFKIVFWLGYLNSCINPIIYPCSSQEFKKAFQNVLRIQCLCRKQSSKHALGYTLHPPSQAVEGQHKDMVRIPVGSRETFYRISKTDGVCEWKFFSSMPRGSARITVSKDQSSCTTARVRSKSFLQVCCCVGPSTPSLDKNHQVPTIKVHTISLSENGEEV

[2] = Pharmacokinetic studies in mice; conditions: male, C57BL/6, mouse, in vivo
[3] = molecular target: Ca2+ channel (L, diltiazem site) (benzothiazepines) (Rattus norvegicus, UniProt P22002); assay type: binding
[4] = molecular target: PDE4D2 (h) (Homo sapiens, UniProt Q08499); test: biochemical; conditions: 1.0E-06 M
[5] = molecular target: T2, Kv1.3 (Homo sapiens, UniProt P22001); test: Ion channel selectivity patch clamp; assay type: cell-based; conditions: Voltage (+20 mV)
T2 construct: expressed in transfected cells

[6] = molecular target: rTRPC5 (Rattus norvegicus, UniProt Q8VD38); test: Whole-cell manual patch clamp; assay type: cell-based
[7] = molecular target: T3, M2 (h) (Homo sapiens, UniProt P08172); test: biochemical
T3 sequence (P08172 1-466): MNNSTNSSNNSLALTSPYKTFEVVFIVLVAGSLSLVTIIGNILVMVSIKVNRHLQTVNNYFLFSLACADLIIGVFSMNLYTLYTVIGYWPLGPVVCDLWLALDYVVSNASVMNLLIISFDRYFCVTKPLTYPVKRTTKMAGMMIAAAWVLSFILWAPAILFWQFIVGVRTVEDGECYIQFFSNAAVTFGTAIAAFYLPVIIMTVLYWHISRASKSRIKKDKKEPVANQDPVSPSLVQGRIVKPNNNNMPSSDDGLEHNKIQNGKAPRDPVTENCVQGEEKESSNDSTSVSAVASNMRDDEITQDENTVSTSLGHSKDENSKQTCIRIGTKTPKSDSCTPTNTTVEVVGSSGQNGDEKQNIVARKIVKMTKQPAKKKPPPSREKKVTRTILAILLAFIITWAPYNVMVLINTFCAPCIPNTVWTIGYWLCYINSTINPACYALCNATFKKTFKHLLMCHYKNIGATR

[8] = molecular target: T4, MC1 (Mus musculus, UniProt Q01727); assay type: binding; conditions: 1.0E-06 M
T4 construct: (endogenous); host or cells: B16-F1 cells

[9] = molecular target: β2 (h) (Homo sapiens, UniProt P07550); assay type: binding; conditions: 1.0E-06 M
[10] = molecular target: T5, 5-HT2A (h) (Homo sapiens, UniProt P28223); assay type: binding
T5 construct: host or cells: HEK-293 cells

[11] = molecular target: CaMK2α (h) (Homo sapiens, UniProt Q9UQM7); test: enzyme assay; assay type: biochemical; conditions: 1.0E-06 M
[12] = molecular target: 5-HT7 (h) (Homo sapiens, UniProt P34969); test: biochemical
[13] = test system: Na+ channel (site 2); assay type: binding, rat; conditions: 1.0E-06 M
[14] = molecular target: T6, choline transporter (CHT1) (h) (Homo sapiens, UniProt Q9GZV3); assay type: binding; conditions: 1.0E-06 M
T6 construct: host or cells: CHO cells
T6 sequence (Q9GZV3 1-580): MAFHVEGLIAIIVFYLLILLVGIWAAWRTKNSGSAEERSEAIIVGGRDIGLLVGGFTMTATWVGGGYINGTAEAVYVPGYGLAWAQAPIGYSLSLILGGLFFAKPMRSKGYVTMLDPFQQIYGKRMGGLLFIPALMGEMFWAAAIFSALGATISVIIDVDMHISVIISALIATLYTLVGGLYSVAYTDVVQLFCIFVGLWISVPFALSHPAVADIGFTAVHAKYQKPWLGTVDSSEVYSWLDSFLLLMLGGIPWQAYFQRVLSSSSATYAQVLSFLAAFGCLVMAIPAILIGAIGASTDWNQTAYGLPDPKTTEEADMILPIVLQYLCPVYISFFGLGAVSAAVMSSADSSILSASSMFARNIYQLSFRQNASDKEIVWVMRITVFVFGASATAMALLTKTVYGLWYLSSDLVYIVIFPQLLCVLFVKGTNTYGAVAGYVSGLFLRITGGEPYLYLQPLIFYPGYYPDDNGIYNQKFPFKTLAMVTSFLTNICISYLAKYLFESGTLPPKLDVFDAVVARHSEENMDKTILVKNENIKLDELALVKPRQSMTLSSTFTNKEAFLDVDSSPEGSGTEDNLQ

5-HT7 (h), sequence (P34969 whole entry): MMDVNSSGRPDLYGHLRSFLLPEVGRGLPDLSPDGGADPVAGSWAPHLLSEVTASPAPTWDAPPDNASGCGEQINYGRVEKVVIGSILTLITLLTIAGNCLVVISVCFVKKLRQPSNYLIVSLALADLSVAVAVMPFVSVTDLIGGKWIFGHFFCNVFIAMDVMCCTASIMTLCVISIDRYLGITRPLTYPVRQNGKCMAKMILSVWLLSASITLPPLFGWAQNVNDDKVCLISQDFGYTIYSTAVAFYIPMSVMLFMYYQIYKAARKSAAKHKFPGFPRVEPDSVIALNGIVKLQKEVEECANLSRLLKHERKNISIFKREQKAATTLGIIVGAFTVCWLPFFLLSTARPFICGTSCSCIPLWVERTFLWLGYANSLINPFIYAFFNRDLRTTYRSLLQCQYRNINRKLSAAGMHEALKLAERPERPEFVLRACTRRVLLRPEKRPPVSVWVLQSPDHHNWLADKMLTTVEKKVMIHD
β2 (h), sequence (P07550 whole entry): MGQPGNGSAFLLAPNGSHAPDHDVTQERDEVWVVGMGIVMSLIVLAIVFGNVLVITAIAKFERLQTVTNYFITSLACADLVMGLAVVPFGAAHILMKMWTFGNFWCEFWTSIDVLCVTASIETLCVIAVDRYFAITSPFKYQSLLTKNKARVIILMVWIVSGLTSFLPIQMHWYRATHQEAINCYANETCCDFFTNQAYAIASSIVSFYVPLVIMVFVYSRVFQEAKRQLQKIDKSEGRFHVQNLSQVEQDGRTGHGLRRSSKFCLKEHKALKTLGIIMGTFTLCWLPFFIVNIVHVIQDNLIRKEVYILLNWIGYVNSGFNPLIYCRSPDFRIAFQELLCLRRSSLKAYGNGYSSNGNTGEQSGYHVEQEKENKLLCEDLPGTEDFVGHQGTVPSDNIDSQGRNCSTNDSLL
PDE4D2 (h), sequence (Q08499 303-809 limits assumed): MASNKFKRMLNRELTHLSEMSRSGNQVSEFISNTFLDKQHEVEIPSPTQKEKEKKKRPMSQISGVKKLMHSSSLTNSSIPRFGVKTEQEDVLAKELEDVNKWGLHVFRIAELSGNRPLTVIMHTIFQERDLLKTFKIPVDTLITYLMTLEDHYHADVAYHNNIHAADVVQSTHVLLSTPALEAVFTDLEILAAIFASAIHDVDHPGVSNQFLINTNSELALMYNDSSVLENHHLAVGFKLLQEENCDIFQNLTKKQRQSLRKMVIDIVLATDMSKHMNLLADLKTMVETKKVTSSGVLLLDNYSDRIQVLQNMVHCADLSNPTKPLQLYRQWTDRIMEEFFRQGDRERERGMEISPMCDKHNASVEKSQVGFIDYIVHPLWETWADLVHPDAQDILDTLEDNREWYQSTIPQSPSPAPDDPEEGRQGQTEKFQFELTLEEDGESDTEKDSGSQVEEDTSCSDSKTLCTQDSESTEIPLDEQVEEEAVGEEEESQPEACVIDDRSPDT
T5 sequence (P28223 whole entry): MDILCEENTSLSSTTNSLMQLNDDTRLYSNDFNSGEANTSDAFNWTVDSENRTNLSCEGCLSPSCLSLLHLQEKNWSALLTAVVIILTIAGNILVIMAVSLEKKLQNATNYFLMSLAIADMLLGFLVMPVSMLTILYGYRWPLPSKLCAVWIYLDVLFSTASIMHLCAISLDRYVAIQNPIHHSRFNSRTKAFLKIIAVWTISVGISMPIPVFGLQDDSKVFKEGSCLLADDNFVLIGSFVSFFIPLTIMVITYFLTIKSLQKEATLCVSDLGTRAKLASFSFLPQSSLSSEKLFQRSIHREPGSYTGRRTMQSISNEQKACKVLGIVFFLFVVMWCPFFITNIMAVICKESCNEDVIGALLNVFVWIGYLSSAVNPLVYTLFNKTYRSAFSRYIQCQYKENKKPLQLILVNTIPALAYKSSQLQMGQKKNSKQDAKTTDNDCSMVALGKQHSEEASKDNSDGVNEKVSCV
T4 sequence (Q01727 whole entry): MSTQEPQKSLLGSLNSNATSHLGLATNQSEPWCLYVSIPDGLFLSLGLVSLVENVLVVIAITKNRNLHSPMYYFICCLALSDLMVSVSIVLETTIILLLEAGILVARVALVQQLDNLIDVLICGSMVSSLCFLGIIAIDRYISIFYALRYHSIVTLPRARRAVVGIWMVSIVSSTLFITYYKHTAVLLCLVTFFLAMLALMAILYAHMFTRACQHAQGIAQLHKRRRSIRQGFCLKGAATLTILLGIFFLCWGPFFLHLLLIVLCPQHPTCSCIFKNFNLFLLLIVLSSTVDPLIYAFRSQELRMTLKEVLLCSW
Ca2+ channel (L, diltiazem site) (benzothiazepines), sequence (P22002 whole entry): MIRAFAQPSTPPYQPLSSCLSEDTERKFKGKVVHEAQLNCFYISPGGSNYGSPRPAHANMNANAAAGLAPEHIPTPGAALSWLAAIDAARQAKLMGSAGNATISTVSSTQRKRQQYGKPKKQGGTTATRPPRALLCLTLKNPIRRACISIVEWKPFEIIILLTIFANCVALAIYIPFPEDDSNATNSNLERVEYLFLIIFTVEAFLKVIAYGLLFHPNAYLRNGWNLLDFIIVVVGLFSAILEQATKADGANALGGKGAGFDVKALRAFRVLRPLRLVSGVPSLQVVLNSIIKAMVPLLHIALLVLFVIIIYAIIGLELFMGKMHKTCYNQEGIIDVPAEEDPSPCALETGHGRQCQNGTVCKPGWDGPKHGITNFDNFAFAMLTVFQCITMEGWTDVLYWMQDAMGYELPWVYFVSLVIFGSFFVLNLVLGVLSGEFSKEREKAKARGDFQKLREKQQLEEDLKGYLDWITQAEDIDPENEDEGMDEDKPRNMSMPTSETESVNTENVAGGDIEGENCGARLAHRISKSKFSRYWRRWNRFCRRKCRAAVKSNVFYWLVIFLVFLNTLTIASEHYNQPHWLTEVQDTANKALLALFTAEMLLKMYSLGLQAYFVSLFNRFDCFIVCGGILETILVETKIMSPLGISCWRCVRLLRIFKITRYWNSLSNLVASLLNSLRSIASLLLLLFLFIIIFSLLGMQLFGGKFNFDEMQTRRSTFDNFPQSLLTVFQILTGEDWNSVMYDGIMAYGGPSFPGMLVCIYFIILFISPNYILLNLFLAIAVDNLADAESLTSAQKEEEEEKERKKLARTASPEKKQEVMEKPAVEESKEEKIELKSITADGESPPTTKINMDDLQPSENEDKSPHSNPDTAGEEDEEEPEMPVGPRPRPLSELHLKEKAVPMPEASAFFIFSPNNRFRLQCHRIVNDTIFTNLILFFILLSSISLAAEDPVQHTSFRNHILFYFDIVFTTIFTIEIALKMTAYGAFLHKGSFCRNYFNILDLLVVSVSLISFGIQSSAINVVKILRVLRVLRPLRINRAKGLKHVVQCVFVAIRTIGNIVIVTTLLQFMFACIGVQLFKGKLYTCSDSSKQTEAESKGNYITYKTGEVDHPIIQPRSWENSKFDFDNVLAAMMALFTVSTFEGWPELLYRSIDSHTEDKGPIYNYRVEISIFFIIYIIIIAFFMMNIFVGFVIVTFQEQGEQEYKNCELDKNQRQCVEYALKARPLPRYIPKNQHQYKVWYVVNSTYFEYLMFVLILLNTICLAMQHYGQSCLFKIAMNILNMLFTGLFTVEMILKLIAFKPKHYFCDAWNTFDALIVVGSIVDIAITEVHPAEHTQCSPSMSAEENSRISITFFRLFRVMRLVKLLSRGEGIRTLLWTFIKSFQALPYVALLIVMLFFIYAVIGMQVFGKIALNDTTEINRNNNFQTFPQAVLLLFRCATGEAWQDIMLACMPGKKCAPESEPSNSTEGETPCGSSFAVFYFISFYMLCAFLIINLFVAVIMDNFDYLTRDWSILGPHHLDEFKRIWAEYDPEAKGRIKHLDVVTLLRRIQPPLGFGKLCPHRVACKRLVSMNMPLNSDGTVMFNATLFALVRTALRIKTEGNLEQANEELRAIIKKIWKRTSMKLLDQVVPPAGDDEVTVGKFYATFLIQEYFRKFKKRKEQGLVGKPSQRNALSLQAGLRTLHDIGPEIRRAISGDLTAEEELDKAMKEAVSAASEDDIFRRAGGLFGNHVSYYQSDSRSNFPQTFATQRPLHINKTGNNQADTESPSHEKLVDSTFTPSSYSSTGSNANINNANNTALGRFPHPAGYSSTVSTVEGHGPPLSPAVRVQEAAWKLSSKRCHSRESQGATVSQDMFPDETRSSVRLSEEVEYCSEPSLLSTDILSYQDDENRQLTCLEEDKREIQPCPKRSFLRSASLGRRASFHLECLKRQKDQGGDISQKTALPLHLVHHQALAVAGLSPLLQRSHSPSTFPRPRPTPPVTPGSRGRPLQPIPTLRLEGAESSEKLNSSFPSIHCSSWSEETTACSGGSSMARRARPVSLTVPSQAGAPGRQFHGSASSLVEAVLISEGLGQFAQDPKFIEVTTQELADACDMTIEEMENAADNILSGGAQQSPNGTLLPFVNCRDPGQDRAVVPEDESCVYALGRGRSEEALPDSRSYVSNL
T2 sequence (P22001 whole entry): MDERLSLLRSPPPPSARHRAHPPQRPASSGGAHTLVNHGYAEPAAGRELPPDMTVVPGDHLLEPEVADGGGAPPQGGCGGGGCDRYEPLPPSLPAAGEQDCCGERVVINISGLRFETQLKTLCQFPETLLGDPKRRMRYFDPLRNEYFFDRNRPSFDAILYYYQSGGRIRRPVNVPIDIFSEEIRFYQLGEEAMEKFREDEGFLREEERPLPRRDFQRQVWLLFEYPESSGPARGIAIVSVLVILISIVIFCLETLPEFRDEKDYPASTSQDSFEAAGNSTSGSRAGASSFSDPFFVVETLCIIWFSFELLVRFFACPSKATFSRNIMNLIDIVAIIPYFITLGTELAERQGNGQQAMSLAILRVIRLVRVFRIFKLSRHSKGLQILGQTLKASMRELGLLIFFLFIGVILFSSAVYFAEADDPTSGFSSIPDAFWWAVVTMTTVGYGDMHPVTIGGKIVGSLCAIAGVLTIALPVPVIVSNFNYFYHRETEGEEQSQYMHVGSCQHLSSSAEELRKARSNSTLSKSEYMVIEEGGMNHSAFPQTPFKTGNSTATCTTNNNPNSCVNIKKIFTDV

`Cn1c(=O)n(CCCO)c(=O)c2c1nc(Oc1cccc(Cl)c1)n2Cc1ccc(Cl)cc1` [HC-070] gave an inhibition at 1 µM ([1]; read-out: % Inhibition 1st) of -6.1%, an inhibition at 1 µM ([1]; read-out: % Inhibition 2nd) of 3.1% and an inhibition at 1 µM ([1]; read-out: % Inhibition Mean) of -1.5%. The half-life ([2]; iv, 1 mg/kg) was 3.5 h and the half-life ([2]; po, 10 mg/kg) was 3.3 h.

With `Cn1c(=O)n(CCCO)c(=O)c2c1nc(Oc1cccc(OC(F)(F)F)c1)n2Cc1ccc(Cl)cc1` [HC-608] the “% Inhibition 1st” value [3] was -1.9%, the “% Inhibition 2nd” value [3] was 8.8% and the “% Inhibition Mean” value [3] was 3.4%. The inhibition at 1 µM ([4]; read-out: % Inhibition 1st) was 1.3%, the inhibition at 1 µM ([4]; read-out: % Inhibition 2nd) was -2% and the inhibition at 1 µM ([4]; read-out: % Inhibition Mean) was -0.3%. The IC50 [5] was 1050 ± 340 nM, the IC50 [6] was about 0.41 nM and the inhibition at 1 µM ([7]; read-out: % Inhibition 1st) was -15.9%. It also gave an inhibition at 1 µM ([7]; read-out: % Inhibition 2nd) of -14.2%, an inhibition at 1 µM ([7]; read-out: % Inhibition Mean) of -15% and an inhibition at 1 µM ([8]; read-out: % Inhibition 1st) of 1%. For the same compound, the inhibition at 1 µM ([8]; read-out: % Inhibition 2nd) was -3.6%, the inhibition at 1 µM ([8]; read-out: % Inhibition Mean) was -1.3% and the inhibition at 1 µM ([9]; read-out: % Inhibition 1st) was -1.9%. For the same compound, the inhibition at 1 µM ([9]; read-out: % Inhibition 2nd) was 0.5%, the inhibition at 1 µM ([9]; read-out: % Inhibition Mean) was -0.7% and the inhibition at 1 µM ([10]; read-out: % Inhibition 1st) was -4.3%. It also gave an inhibition at 1 µM ([10]; read-out: % Inhibition 2nd) of 6.9%, an inhibition at 1 µM ([10]; read-out: % Inhibition Mean) of 1.3% and an inhibition at 1 µM ([11]; read-out: % Inhibition 1st) of -4%. For the same compound, the inhibition at 1 µM ([11]; read-out: % Inhibition 2nd) was 2.8%, the inhibition at 1 µM ([11]; read-out: % Inhibition Mean) was -0.6% and the inhibition at 1 µM ([12]; read-out: % Inhibition 1st) was 12.1%. For the same compound, the inhibition at 1 µM ([12]; read-out: % Inhibition 2nd) was 10.9%, the inhibition at 1 µM ([12]; read-out: % Inhibition Mean) was 11.5% and the “% Inhibition 1st” value [13] was 12%. The “% Inhibition 2nd” value [13] was -7.3%, the “% Inhibition Mean” value [13] was 2.3% and the inhibition at 1 µM ([14]; read-out: % Inhibition 1st) was -5.8%. The inhibition at 1 µM ([14]; read-out: % Inhibition 2nd) was -1.9% and the inhibition at 1 µM ([14]; read-out: % Inhibition Mean) was -3.9%.
